Source: US9975907B2, “Pyrimidinones as PI3K inhibitors” (Incyte Corporation, priority 2009, dated 2018)

What was measured:
Type in all cases: biochemical
[1] = target: PI3Kδ (p110δ/p85α) (Homo sapiens (Human), UniProt O00329); assay: AlphaScreen Assay for PI3Kδ (Assay A1); conditions: column a, 20 μM ATP
Excerpt: PI3-Kinase luminescent assay kit including lipid kinase substrate, D-myo-phosphatidylinositol 4,5-bisphosphate (PtdIns(4,5)P2)D (+)-sn-1,2-di-O-octanoylglyceryl, 3-O-phospho linked (PIP2), biotinylated I(1,3,4,5)P4, PI(3,4,5)P3 Detector Protein, was purchased from Echelon Biosciences (Salt Lake City, Utah). AlphaScreen™ GST Detection Kit including donor and acceptor beads was purchased from PerkinElmer Life Sciences (Waltham, Mass.). PI3Kδ (p110δ/p85α) was purchased from Millipore (Bedford, Mass.). ATP, MgCb, DTT, EDTA, HEPES and CHAPS were purchased from Sigma-Aldrich (St. Louis, Mo.).
AlphaScreen™ Assay for PI3Kδ
The kinase reaction was conducted in 384-well REMP plate from Thermo Fisher Scientific in a final volume of 40 μL. Inhibitors were first diluted serially in DMSO and added to the plate wells before the addition of other reaction components. The final concentration of DMSO in the assay was 2%. The PI3K assays were carried out at room temperature in 50 mM HEPES, pH 7.4, 5 mM MgCl2, 50 mM NaCl, 5 mM DTT and CHAPS 0.04%. Reactions were initiated by the addition of ATP, the final reaction mixture consisted of 20 μM PIP2, 20 μM ATP, 1.2 nM PI3Kδ were incubated for 20 min. 10 μL of reaction mixture was then transferred to 5 μL 50 nM biotinylated I(1,3,4,5)P4 in quench buffer: 50 mM HEPES pH 7.4, 150 mM NaCl, 10 mM EDTA, 5 mM DTT, 0.1% Tween-20, followed with the addition of 10 μL AlphaScreen™ donor and acceptor beads suspended in quench buffer containing 25 nM PI(3,4,5)P3 detector protein. The final concentration of both donor and acceptor beads is […]. After plate sealing, the plate was incubated in a dark location at room temperature for 2 hours. The activity of the product was determined on Fusion-alpha microplate reader (Perkin-Elmer). IC50 determination was performed by fitting the curve of percent control activity versus the log of the inhibitor concentration using the GraphPad Prism 3.0 software.

[2] = target: PI3Kα (Homo sapiens (Human), UniProt P42336); assay: PI3K Enzyme Assay A2 ([γ-33P]ATP filter plate), PI3Kα; conditions: Assay A2, 1000 μM ATP
Procedure: (§1) Materials: Lipid kinase substrate, phosphoinositol-4,5-bisphosphate (PIP2), was purchased from Echelon Biosciences (Salt Lake City, Utah). PI3K isoforms α, β, δ and γ were purchased from Millipore (Bedford, Mass.). ATP, MgCh, DTT, EDTA, MOPS and CHAPS were purchased from Sigma-Aldrich (St. Louis, Mo.). The kinase reaction was conducted in clear-bottom 96-well plate from Thermo Fisher Scientific in a final volume of 24 μL. Inhibitors were first diluted serially in DMSO and added to the plate wells before the addition of other reaction components. The final concentration of DMSO in the assay was 0.5%. The PI3K assays were carried out at room temperature in 20 mM MOPS, pH 6.7, 10 mM MgCl2, 5 mM DTT and CHAPS 0.03%. The reaction mixture was prepared containing 50 μM PIP2, kinase and varying concentration of inhibitors. Reactions were initiated by the addition of ATP containing 2.2 μCi [γ-^33P]ATP to a final concentration of 1000 μM. […] Reactions were incubated for 180 min and terminated by the addition of 100 μL of 1 M potassium phosphate pH 8.0, 30 mM EDTA quench buffer. A 100 μL aliquot of the reaction solution was then transferred to 96-well Millipore MultiScreen IP 0.45 μm PVDF filter plate (The filter plate was prewetted with 200 μL 100% ethanol, distilled water, and 1 M potassium phosphate pH 8.0, respectively). The filter plate was aspirated on a Millipore Manifold under vacuum and washed with 18×200 μL wash buffer containing 1 M potassium phosphate pH 8.0 and 1 mM ATP. After drying by aspiration and blotting, the plate was air dried in an incubator at 37° C. overnight. Packard TopCount adapter (Millipore) was then attached to the plate followed with addition of 120 μL Microscint 20 scintillation cocktail (Perkin Elmer) in each well. After the plate sealing, the radioactivity of the product was determined by scintillation counting on Topcount (Perkin-Elmer). IC50 determination was performed by fitting the curve of percent control activity versus the log of the inhibitor concentration using the GraphPad Prism 3.0 software.

[3] = target: PI3Kβ (Homo sapiens (Human), UniProt P42338); assay: PI3K Enzyme Assay A2 ([γ-33P]ATP filter plate), PI3Kβ; conditions: Assay A2, 1000 μM ATP
Procedure: as §1, with “software. […] See Table 1 for data related to compounds of the invention.” for “software.”

Chain of PI3Kβ (P42338 whole entry, species assumed): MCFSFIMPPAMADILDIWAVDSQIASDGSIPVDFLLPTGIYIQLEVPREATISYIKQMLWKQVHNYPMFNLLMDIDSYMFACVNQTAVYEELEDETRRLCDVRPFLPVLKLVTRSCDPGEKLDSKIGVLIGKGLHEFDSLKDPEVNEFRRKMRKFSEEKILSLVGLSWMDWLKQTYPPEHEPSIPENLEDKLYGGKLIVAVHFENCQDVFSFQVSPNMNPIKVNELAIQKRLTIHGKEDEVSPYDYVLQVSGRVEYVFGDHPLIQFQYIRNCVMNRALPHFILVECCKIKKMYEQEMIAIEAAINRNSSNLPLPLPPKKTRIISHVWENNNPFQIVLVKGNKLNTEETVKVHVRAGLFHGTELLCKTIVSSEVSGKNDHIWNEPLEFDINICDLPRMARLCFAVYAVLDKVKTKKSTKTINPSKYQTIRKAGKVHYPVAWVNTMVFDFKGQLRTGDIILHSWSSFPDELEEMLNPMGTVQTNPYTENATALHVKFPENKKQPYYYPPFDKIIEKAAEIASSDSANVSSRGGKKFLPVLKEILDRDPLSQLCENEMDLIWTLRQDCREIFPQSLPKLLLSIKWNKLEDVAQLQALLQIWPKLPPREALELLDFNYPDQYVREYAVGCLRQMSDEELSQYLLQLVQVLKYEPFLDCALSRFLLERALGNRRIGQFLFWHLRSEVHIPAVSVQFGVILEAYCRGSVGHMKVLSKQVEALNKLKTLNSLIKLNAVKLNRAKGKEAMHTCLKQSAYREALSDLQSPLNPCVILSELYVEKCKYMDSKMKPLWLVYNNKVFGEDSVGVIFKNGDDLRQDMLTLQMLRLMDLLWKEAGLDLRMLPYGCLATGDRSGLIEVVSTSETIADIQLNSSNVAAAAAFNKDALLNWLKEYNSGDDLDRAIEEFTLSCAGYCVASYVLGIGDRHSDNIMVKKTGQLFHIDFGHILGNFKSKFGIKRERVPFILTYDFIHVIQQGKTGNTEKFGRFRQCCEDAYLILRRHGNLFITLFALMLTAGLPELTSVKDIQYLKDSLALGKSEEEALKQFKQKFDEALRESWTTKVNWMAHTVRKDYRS
Chain of PI3Kβ (P27986 whole entry partner, species assumed): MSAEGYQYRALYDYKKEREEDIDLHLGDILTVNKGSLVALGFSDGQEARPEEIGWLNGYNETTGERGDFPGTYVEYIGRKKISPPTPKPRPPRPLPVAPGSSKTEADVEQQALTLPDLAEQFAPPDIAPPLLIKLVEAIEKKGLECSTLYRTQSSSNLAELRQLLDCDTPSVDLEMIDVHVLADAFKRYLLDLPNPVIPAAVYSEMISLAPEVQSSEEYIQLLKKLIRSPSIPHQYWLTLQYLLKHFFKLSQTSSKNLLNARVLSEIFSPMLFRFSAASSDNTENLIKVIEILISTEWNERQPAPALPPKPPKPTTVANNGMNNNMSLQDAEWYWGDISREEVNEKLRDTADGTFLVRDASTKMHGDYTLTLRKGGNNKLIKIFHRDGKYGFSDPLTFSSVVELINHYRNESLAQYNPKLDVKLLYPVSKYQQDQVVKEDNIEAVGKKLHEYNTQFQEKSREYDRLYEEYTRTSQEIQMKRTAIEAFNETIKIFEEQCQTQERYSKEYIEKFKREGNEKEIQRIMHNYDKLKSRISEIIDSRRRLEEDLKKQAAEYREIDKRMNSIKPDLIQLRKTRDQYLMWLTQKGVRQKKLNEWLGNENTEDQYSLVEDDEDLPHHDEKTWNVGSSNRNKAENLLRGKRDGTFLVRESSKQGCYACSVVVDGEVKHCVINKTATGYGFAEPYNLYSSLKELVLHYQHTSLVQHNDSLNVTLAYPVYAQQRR
Chain of PI3Kα (P42336 whole entry, species assumed, canonical isoform): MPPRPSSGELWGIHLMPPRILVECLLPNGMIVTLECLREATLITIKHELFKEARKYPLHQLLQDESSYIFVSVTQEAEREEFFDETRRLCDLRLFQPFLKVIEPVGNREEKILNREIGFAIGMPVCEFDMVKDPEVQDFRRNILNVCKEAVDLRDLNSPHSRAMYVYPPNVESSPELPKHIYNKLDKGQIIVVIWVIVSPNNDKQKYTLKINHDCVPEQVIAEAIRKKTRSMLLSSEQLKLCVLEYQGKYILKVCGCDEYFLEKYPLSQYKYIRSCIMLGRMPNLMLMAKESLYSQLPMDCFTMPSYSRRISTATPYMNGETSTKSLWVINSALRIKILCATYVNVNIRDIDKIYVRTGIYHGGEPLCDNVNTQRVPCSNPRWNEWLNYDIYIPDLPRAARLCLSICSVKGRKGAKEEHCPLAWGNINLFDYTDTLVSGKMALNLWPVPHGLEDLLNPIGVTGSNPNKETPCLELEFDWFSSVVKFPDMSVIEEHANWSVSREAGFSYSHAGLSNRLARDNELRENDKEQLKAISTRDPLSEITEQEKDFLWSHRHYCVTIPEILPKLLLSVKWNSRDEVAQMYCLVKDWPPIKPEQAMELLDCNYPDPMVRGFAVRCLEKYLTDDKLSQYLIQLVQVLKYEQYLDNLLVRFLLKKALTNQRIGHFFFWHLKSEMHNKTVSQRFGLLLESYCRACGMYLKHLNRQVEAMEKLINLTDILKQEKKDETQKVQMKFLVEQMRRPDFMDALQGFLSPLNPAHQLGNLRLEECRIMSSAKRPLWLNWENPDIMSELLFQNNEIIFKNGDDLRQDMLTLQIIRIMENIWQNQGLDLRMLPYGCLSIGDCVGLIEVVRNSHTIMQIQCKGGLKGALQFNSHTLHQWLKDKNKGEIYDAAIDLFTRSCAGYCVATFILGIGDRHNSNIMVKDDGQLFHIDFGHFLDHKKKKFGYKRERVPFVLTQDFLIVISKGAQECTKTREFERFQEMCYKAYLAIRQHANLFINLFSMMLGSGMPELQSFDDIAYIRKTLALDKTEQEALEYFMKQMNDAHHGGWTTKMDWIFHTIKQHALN
Chain of PI3Kα (P27986 whole entry partner, species assumed, canonical isoform): as the sequence (P27986 whole entry partner, species assumed) above
Chain of PI3Kδ (p110δ/p85α) (O00329 whole entry, species assumed): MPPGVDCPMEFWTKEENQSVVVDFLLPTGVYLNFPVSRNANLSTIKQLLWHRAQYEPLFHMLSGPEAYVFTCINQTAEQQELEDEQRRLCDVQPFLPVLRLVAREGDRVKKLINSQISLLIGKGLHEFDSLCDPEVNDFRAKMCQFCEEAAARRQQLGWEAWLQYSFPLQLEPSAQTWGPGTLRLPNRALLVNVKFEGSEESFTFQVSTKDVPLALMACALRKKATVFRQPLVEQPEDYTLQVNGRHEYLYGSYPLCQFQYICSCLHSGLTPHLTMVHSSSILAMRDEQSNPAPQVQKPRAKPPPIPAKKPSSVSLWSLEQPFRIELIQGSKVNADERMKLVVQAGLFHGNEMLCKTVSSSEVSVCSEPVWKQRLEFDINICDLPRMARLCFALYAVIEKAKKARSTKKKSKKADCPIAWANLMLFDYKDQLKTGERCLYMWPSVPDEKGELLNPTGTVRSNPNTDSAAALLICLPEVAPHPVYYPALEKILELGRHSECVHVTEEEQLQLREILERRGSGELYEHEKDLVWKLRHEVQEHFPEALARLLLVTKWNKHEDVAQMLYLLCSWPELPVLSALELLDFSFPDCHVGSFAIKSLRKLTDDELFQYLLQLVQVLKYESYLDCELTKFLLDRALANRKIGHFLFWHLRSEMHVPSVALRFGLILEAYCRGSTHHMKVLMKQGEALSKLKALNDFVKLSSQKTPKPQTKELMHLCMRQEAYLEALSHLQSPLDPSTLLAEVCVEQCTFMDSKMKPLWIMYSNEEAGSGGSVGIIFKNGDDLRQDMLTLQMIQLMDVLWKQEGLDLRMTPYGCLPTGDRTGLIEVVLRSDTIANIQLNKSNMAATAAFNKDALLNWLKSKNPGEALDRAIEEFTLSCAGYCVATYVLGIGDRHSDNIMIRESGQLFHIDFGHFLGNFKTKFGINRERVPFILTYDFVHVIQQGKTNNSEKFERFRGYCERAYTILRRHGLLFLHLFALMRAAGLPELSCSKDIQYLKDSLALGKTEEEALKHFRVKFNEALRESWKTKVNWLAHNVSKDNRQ
Chain of PI3Kδ (p110δ/p85α) (P27986 whole entry partner, species assumed): as the sequence (P27986 whole entry partner, species assumed) above

IC50 [1] [nM] | IC50 [2] [nM] | IC50 [3] [nM] | Structure (SMILES)
< 50 | > 500 | > 500 | Cc1csc2nc(C(C)Nc3nc(N)nc4[nH]cnc34)c(-c3ccccc3)c(=O)n12 (stereo not drawn) [Example 9, 7-{1-[(2-amino-9H-purin-6-yl)amino]ethyl}-3-methyl-6-phenyl-5H-[1,3]thiazolo[3,2-a]pyrimidin-5-one]
< 50 | > 500 | > 500 | Cc1csc2nc(C(C)Nc3nc(N)nc4[nH]cnc34)c(-c3cccc(F)c3)c(=O)n12 (stereo not drawn) [Example 11, 7-{1-[(2-amino-9H-purin-6-yl)amino]ethyl}-6-(3-fluorophenyl)-3-methyl-5H-[1,3]thiazolo[3,2-a]pyrimidin-5-one]
< 50 | > 500 | > 500 | Cc1csc2nc(C(C)Nc3nc(N)nc4[nH]cnc34)c(-c3cc(F)cc(F)c3)c(=O)n12 (stereo not drawn) [Example 13, 7-{1-[(2-amino-9H-purin-6-yl)amino]ethyl}-6-(3,5-difluorophenyl)-3-methyl-5H-[1,3]thiazolo[3,2-a]pyrimidin-5-one]
